How the values were obtained:
Type in all cases: in vivo
Musca domestica = test: Test Example 2: treated filter paper with sucrose bait, death rate of Musca domestica; details: 500 ppm test solution, 0.7 ml on filter paper, 10 female imagoes, after 24 hours
Method: (§1) Preparations of the present compounds (1), (2), (3), (4), (5), (6), (7), (8), (9), (10), (13), (18), (23), (24), (25), (26), (27), (28), (29), (30), (31), (32), (33), (34), (35), (38) and (39) obtained according to Formulation Example 44 were diluted so that the active ingredient concentration was 500 ppm to obtain test solutions.
(§2) A filter paper having a diameter of 5.5 cm was spread on the bottom of a polyethylene cup having a diameter of 5.5 cm and 0.7 ml of the test solution was added dropwise onto the filter paper. As a bait 30 mg of sucrose was uniformly placed on the filter paper. Into the polyethylene cup, 10 female imagoes of Musca domestica were released and the cup was sealed with a lid. After 24 hours, the number of surviving Musca domestica was examined and the death rate of the pest was calculated.
As a result, in treatments with the present compounds (1), (2), (3), (4), (5), (6), (7), (8), (9), (10), (13), (18), (23), (24), (25), (26), (27), (28), (29), (30), (31), (32), (33), (34), (35), (38) and (39), the death rate of the pest was 70% or more.

Blattalla germanica = test: Test Example 3: treated filter paper with sucrose bait, death rate of Blattalla germanica; details: 144 h; 500 ppm test solution, 0.7 ml on filter paper; 2 male imagoes; after 6 days
Method: as §1, with “compounds” for “compounds (1), (2),”, “(7),” for “(7), (8),”, “(13),” for “(13), (18),”
as §2, with “2 male” for “10 female”, “Blattalla germanica” for “Musca domestica”, “6 days,” for “24 hours,”
As a result, in treatments with the present compounds (3), (4), (5), (6), (7), (9), (10), (13), (23), (24), (25), (26), (27), (28), (29), (30), (31), (32), (33), (34), (35), (38) and (39), the death rate of the pest was 100%.

Culex pipiens pallens = test: Test Example 4: larvae released into treated water, death rate of Culex pipiens pallens; details: 24 h, active ingredient concentration 3.5 ppm in water, 20 last-instar larvae, after one day
Method: as §1, with “(7),” for “(7), (8), (9), (10),”, “(13), (14), (15), (16),” for “(13),”, “(18), (22),” for “(18),”, “(35), (36),” for “(35),”
To 100 mL of ion-exchanged water, 0.7 ml of the test solution was added (active ingredient concentration: 3.5 ppm). Into the solution, 20 last-instar larvae of Culex pipiens pallens were released. After one day, the number of surviving Culex pipiens pallens was examined and the death rate of the pest was calculated.
As a result, in treatments with the present compounds (1), (2), (3), (4), (5), (6), (7), (13), (14), (15), (16), (18), (22), (23), (24), (25), (26), (27), (28), (29), (30), (31), (32), (33), (34), (35), (36), (38) and (39), the death rate of the pest was 90% or more.

[1] = test system: Haemaphysalis longicornis; test: Test Example 5: treated filter paper pouch, death rate of ticks; details: 48 h, filter paper treated with 100 mg/m^2, non-blood-sucking nymphal ticks, 10 ticks/group, after 2 days, read-out: death rate of the tick
Method: Five milligrams of any one of the present compounds (19), (23), (24), (27), (28), (29), (32), (33), (35), (38) and (39) was dissolved in 10 mL of acetone. One milliliter of the acetone solution was uniformly applied on one side of a filter paper (TOYO No. 2; 5×10 cm), so that the filter paper was treated with 100 mg/m^2 of the present compound. After drying, the filter paper was folded in two and its edges were clipped to make a pouch. Non-blood-sucking nymphal ticks (Haemaphysalis longicornis, 10 ticks/group) were put into the pouch, and the pouch was sealed with clips. After 2 days, the number of surviving ticks was examined and the death rate was calculated.
As a result, in treatments with the present compounds (19), (23), (24), (27), (28), (29), (32), (33), (35), (38) and (39), the death rate of the tick was 90%.

Structure (SMILES) | pest or weed control at 500 ppm (Musca domestica) [%] | pest or weed control at 500 ppm (Blattalla germanica) [%] | pest or weed control at 3.5 ppm (Culex pipiens pallens) [%] | pest or weed control at 100 mg/m2 [1] [%]
C#CC(C)CCCC(C#N)S(=O)(=O)CCC(F)(F)F (stereo not shown) [present compound (28), 6-methyl-2-(3,3,3-trifluoropropylsulfonyl)-7-octynenitrile] | ≥ 70 | 100 | ≥ 90 | 90
C#CCC(CC)CCC(C#N)S(=O)(=O)CCC(F)(F)F (stereo not shown) [present compound (29), 5-ethyl-2-(3,3,3-trifluoropropylsulfonyl)-7-octynenitrile] | ≥ 70 | 100 | ≥ 90 | 90
C#CCC(CC)CCC(Cl)(C(N)=O)S(=O)(=O)CCC(F)(F)F (stereo not shown) [present compound (32), 2-chloro-5-ethyl-2-(3,3,3-trifluoropropylsulfonyl)-7-octynamide] | ≥ 70 | 100 | ≥ 90 | 90
C#CCC(C)(C)CCC(C#N)S(=O)(=O)CCC(F)(F)F (stereo not shown) [present compound (33), 5,5-dimethyl-2-(3,3,3-trifluoropropylsulfonyl)-7-octynenitrile] | ≥ 70 | 100 | ≥ 90 | 90
C/C(=C\CC(C#N)S(=O)(=O)CCC(F)(F)F)C(F)(F)F (stereo not shown) [present compound (35), 6,6,6-trifluoro-5-methyl-2-(3,3,3-trifluoropropylsulfonyl)-4-hexenenitrile] | ≥ 70 | 100 | ≥ 90 | 90
C#CCOCCC(C#N)S(=O)(=O)CCC(F)(F)F (stereo not shown) [present compound (38), 4-(2-propyonyloxy)-2-(3,3,3-trifluoropropylsulfonyl)butanenitrile] | ≥ 70 | 100 | ≥ 90 | 90
C#CCOCCC(C)(C#N)S(=O)(=O)CCC(F)(F)F (stereo not shown) [present compound (39), 2-methyl-4-(2-propynyloxy)-2-(3,3,3-trifluoropropylsulfonyl)butanenitrile] | ≥ 70 | 100 | ≥ 90 | 90
